Reference: patent publication US20110257145A1, “METHOD OF TREATING NEUROLOGICAL DISEASES” (THE BOARD OF TRUSTEES OF THE UNIVERSITY OF ILLINOIS, priority 2008, published 2011)

How the values were obtained:
AD cells [1] = conditions: cited from earlier work
AD cells [2] = conditions: cited from earlier work; remark: listed apart in the source
[3] = test system: APP-[V717I] transgenic mice; conditions: in vivo; cited from earlier work
[4] = test system: fibroblasts from AD patients; conditions: sub-nanomolar concentrations; cited from earlier work
[5] = test system: AD double-transgenic mouse; conditions: in vivo; cited from earlier work
mouse PKCα = mouse PKCα (Mus musculus, UniProt P20444); conditions: PKC binding, value marked [52]; read-out: K1[nm] ± SEM; cited from earlier work
primary cortical neurons = assay: neuron viability in the absence of HCA (MTT); format: cell-based, rat; conditions: concentration not given
Protocol: Primary neurons and cell culture: Cell cultures were obtained from the cerebral cortex of fetal Sprague-Dawley rats (embryonic day 17), as described previously. All experiments were initiated 24 hours after plating. Under these conditions, the cells are not susceptible to glutamate-mediated excitotoxicity.
Oxidative toxicity and neuron viability assays: For cytotoxicity studies, cells were rinsed with warm phosphate-buffered saline (PBS), then placed in minimum essential medium (Invitrogen, Carlsbad, Calif.) containing glucose (5.5 g L^−1), 10% fetal calf serum, L-glutamine (2 mM), and cysteine (100 μM). […] Viability was assessed after 48 hours by calceinacetoxymethyl ester (AM)/ethidium homodimer-1 staining (live/dead assay; Molecular Probes, Eugene, Oreg., USA) under fluorescence microscopy and the MTT assay method. […]
In one embodiment, the present invention relates to a method of treating an individual suffering from a disease or condition wherein activation of PKC and inhibition of HDAC provides a benefit comprising administering a therapeutically effective amount of a compound of structural formula (I) to an individual in need thereof. […] Neuron survival was quantified by MTT assay, a colorimetric assay in which the amount of yellow MTT is reduced to purple formazan by active mitochondrial reductase enzymes in viable cells.

CCCCCCCCC#Cc1ccc2c(c1)CC(CO)NC(=O)C(C(C)C)N2C (centres unmarked) [BL, 8-(1-decynyl)benzolactam]
K+ channel defects (AD cells [1]): reverses | secretion of sAPPα (AD cells [2]): enhances the secretion of sAPPα | Aβ40 in the brains [3]: decrease | amount of sAPPα in the brains [3]: significantly increase

CCC/C=C/C=C/C(=O)O[C@H]1/C(=C/C(=O)OC)C[C@H]2C[C@H]([C@@H](C)O)OC(=O)C[C@H](O)C[C@@H]3C[C@H](OC(C)=O)C(C)(C)[C@](O)(C[C@@H]4C/C(=C/C(=O)OC)C[C@H](/C=C/C(C)(C)[C@]1(O)O2)O4)O3 [Bryostatin 1]
secretion of the α-secretase product sAPPα [4]: dramatically enhances | behavioral outcome [5]: improved | brain Aβ40 [5]: decreased | brain Aβ42 [5]: decreased | rate of premature death [5]: ameliorated | Ki (mouse PKCα): 1.4 nM

CC(/C=C/C(=O)NO)=C\[C@@H](C)C(=O)c1ccc(N(C)C)cc1 [TSA, trichostatin A]
toxicity in neuron viability measurements (primary cortical neurons): considerable dose dependent toxicity
